These results are taken from patent US11945801B2, “Bicyclic aza compounds as muscarinic M1 and/or M4 receptor agonists” (Heptares Therapeutics Limited, priority 2018, dated 2024).

What is called Emax is the maximal effect, on the per cent scale that the assay sets.

Molecules are shown by their SMILES. Read-outs that look alike come from different tables or passages of the source. Bounds are passed on as bounds.

What all share (type): cell-based
Assay [1] deals with T1, human muscarinic M3 receptor (Homo sapiens, UniProt P20309).
T1 construct: expressed in transfected cells
T1 sequence (P20309 whole entry): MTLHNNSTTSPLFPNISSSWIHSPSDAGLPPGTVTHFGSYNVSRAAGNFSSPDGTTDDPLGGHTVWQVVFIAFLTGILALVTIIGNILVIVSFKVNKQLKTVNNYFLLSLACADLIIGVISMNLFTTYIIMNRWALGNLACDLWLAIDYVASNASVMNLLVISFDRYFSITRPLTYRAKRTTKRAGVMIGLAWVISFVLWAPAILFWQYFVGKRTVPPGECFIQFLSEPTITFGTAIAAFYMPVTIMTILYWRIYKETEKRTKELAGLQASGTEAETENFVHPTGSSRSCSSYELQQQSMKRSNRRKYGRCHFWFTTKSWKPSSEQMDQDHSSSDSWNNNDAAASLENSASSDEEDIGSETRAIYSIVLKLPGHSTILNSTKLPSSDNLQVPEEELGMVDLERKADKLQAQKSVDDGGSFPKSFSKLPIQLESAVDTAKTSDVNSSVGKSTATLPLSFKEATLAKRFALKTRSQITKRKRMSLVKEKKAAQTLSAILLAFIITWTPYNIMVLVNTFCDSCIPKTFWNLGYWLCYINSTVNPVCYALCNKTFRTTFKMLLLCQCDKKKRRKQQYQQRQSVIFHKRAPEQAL
The assay is described as follows: Alphascreen Surefire phospho-ERK1/2 functional assay, M3. To be noted: for EC50: agonist 5 min, 37° C., read-out: pEC50 M3 (converted); for Emax: CHO. Here is the method: (§1) ERK1/2 phosphorylation is a downstream consequence of both Gq/11 and Gi/o protein coupled receptor activation, making it highly suitable for the assessment of M1, M3 (Gq/11 coupled) and M2, M4 receptors (Gi/o coupled), rather than using different assay formats for different receptor subtypes. CHO cells stably expressing the human muscarinic M1, M2, M3 or M4 receptor were plated (25K/well) onto 96-well tissue culture plates in MEM-alpha+10% dialysed FBS. Once adhered, cells were serum-starved overnight. Agonist stimulation was performed by the addition of 5 μL agonist to the cells for 5 min (37° C.). Media was removed and 50 μL of lysis buffer added. After […], a 4 μL sample was transferred to 384-well plate and 7 μL of detection mixture added.
(§2) Isomer assignment (Isomer 1, Isomer 2, etc.) is based on the retention time of the compound using the separation technique that was performed in the final purification step. By implication, this could be reversed phase HPLC, chiral HPLC or chiral SFC retention time, and this will vary from compound to compound.
For orientation: Alpha assays give light when donor and acceptor beads are brought close together.

For assay [2], the target named is T2, human muscarinic M1 receptor (Homo sapiens, UniProt P11229).
T2 sequence (P11229 1-460): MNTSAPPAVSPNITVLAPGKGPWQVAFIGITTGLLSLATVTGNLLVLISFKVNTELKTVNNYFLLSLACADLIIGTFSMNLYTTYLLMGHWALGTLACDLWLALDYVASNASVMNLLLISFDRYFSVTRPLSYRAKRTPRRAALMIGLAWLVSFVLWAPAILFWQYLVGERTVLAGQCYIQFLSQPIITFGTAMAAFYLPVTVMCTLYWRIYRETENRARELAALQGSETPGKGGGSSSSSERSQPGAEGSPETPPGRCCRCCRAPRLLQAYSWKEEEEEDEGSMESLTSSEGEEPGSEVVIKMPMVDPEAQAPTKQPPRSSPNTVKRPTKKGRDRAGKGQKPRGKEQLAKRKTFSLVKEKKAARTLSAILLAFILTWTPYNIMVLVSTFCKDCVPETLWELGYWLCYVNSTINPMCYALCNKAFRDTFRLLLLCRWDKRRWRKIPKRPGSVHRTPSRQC
The assay is described as follows: Alphascreen Surefire phospho-ERK1/2 functional assay, M1. To be noted: for % Emax cf. ACh, M1 / EC50: CHO cells stably expressing human M1; for EC50: agonist 5 min, 37° C., read-out: pEC50 M1 (converted); for Emax: CHO. Here is the method: as §1, §2

Assay [3] deals with T3, human muscarinic M4 receptor (Homo sapiens, UniProt P08173).
T3 construct: expressed in transfected cells
T3 sequence (P08173 1-479): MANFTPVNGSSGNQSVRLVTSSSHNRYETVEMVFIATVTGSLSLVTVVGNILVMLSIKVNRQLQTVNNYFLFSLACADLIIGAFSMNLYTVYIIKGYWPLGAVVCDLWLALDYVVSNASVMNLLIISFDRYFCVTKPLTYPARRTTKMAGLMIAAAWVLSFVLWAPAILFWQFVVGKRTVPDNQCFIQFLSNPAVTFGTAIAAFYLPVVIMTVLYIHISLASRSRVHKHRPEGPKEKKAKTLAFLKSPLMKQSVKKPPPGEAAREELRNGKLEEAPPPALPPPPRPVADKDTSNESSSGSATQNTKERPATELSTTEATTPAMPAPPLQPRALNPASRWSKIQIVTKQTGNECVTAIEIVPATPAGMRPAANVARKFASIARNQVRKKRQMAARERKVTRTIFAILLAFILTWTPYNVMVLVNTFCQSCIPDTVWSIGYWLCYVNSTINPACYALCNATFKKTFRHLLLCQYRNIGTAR
Nature of the assay: Alphascreen Surefire phospho-ERK1/2 functional assay, M4. To be noted: for % Emax cf. ACh, M4 / EC50: CHO cells stably expressing human M4; for EC50: agonist 5 min, 37° C., read-out: pEC50 M4 (converted); for Emax: CHO. Here is the method: as §1, §2

Assay [4] has as its target T4, human muscarinic M2 receptor (Homo sapiens, UniProt P08172).
T4 sequence (P08172 1-466): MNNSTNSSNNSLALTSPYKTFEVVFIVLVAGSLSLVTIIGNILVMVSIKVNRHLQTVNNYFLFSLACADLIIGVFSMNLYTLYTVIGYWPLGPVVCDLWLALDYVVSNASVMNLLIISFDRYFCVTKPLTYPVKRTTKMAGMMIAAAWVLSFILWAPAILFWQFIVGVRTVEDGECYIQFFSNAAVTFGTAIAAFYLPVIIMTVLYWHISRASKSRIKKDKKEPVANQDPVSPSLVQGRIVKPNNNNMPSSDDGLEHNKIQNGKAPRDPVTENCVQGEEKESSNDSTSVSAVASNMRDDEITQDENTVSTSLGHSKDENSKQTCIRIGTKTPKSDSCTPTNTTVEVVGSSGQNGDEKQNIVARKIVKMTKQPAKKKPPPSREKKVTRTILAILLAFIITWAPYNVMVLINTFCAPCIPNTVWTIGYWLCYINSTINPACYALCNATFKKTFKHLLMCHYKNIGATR
Nature of the assay: Alphascreen Surefire phospho-ERK1/2 functional assay, M2. To be noted: for EC50: agonist 5 min, 37° C., read-out: pEC50 M2 (converted); for Emax: CHO. Here is the method:
as §1, §2

Where [5] appears, read: CHO cells stably expressing human M3.
Where [6] appears, read: read-out: % Emax cf. ACh, M3, CHO cells stably expressing human M3, Emax relative to ACh.
Where [7] appears, read: read-out: % Emax cf. ACh, M1, CHO cells stably expressing human M1, Emax relative to ACh.
Setting [8] is: read-out: % Emax cf. ACh, M4, CHO cells stably expressing human M4, Emax relative to ACh.
Where [9] appears, read: CHO cells stably expressing human M2.
Where [10] appears, read: read-out: % Emax cf. ACh, M2, CHO cells stably expressing human M2, Emax relative to ACh.

For `CCOC(=O)N1CC2CCC1CC2N1CC(CC(=O)N(CC)C(C)C)C1` (single isomer, unassigned) [Example 2-2 Isomer 2, Ethyl-5-(3-(2-(ethyl(isopropyl)amino)-2-oxoethyl)azetidin-1-yl)-2-azabicyclo[2.2.2]octane-2-carboxylate], the “% Emax cf. ACh, M3” value in assay [1] (CHO cells stably expressing human M3, Emax relative to ACh) came to 7%. For the same compound, the “% Emax cf. ACh, M1” value in assay [2] (Emax relative to ACh, listed as 2-2 Isomer 2) is reported as 65%. Further, the EC50 in assay [2] was 229 nM; in assay [3] it was over 20000 nM. Also, the “% Emax cf. ACh, M4” value in assay [3] (Emax relative to ACh) is given as 31%. Besides, the “% Emax cf. ACh, M2” value in assay [4] (CHO cells stably expressing human M2, Emax relative to ACh) is 6%.

In the case of `CCOC(=O)N1CC2(CCC(N3CC(OC(=O)N4CCOCC4)C3)C2)C1` (single isomer, unassigned) [Example 4-8 Isomer 1, 1-(2-(Ethoxycarbonyl)-2-azaspiro[3.4]octan-6-yl)azetidin-3-yl morpholine-4-carboxylate], the EC50 in assay [1] (setting [5]) is over 20000 nM; in assay [2] it was 57.5 nM; in assay [3], over 20000 nM; in assay [4] (setting [9]), over 20000 nM. Besides, the Emax amounted to 4% in assay [1] (setting [6]), 72% in assay [2] (setting [7]), 14% in assay [3] (setting [8]) and 2% in assay [4] (setting [10]).

Consider `CCN(CC)C(=O)OC1CN(C2CCC3(C2)CN(C(=O)OC)C3)C1` (single isomer, unassigned) [Example 4-6 Isomer 2, Methyl 6-(3-((diethylcarbamoyl)oxy)azetidin-1-yl)-2-azaspiro[3.4]octane-2-carboxylate], for which the EC50 is over 20000 nM in assay [1] (setting [5]), 214 nM in assay [2], 339 nM in assay [3] and over 20000 nM in assay [4] (setting [9]). Moreover, the Emax in assay [1] (setting [6]) was 11%; in assay [4] (setting [10]), 9%. Besides, in assay [2] (Emax relative to ACh), the “% Emax cf. ACh, M1” value turned out to be 93%. For the same compound, the “% Emax cf. ACh, M4” value in assay [3] (Emax relative to ACh) is reported as 32%.

Regarding `CCOC(=O)N1CC2CCC1CC2N1CC(CC(=O)N(CC)C(C)C)C1` (single isomer, unassigned) [Example 2-2 Isomer 1, Ethyl-5-(3-(2-(ethyl(isopropyl)amino)-2-oxoethyl)azetidin-1-yl)-2-azabicyclo[2.2.2]octane-2-carboxylate], the EC50 in assay [1] (setting [5]) was over 20000 nM; in assay [2] it was 19.1 nM; in assay [3] it was 257 nM; in assay [4] (setting [9]) it was over 20000 nM. The figures for the Emax in assay [1] (setting [6]), in assay [3] (setting [8]) and in assay [4] (setting [10]) were 12%, 36% and 8%, respectively. Moreover, in assay [2] (Emax relative to ACh, listed as 2-2 Isomer 1), the “% Emax cf. ACh, M1” value was 95%.

For `CCOC(=O)N1CC2(CCC(N3CC(OC(=O)N4CCCC4)C3)C2)C1` (single isomer, unassigned) [Example 4-7 Isomer 1, Ethyl 6-(3-((pyrrolidine-1-carbonyl)oxy)azetidin-1-yl)-2-azaspiro[3.4]octane-2-carboxylate], the EC50 in assay [1] (setting [5]) is over 20000 nM; in assay [2], 75.9 nM; in assay [3] it was 49 nM; in assay [4] (setting [9]), over 20000 nM. Also, the Emax stood at 8% in assay [1] (setting [6]), 51% in assay [2] (setting [7]), 29% in assay [3] (setting [8]) and 7% in assay [4] (setting [10]).

Regarding `CCOC(=O)N1CC2CCC1CC2N1CC(OC(=O)N2CCCCCC2)C1` (single isomer, unassigned) [Example 6-4 Isomer 1, Ethyl 5-(3-((azepane-1-carbonyl)oxy)azetidin-1-yl)-2-azabicyclo[2.2.2]octane-2-carboxylate], the EC50 in assay [1] (setting [5]) was over 20000 nM; in assay [2] it was 117 nM; in assay [3] it was 490 nM; in assay [4] (setting [9]), over 20000 nM. The Emax in assay [1] (setting [6]) stood at 5%; in assay [2] (setting [7]), 86%; in assay [3] (setting [8]), 50%; in assay [4] (setting [10]) it was 9%.

In the case of `CCOC(=O)N1C2CCC1CC(N1CC(CC(=O)N3CCCCC3)C1)C2` (mixture of isomers) [Example 1-4 Isomer mixture, Ethyl-3-(3-(2-oxo-2-(piperidin-1-yl)ethyl)azetidin-1-yl)-8-azabicyclo[3.2.1]octane-8-carboxylate], the EC50 is over 20000 nM in assay [1] (setting [5]), 309 nM in assay [2], over 20000 nM in assay [3] and over 20000 nM in assay [4] (setting [9]). For the same compound, the Emax was 6% in assay [1] (read-out: % Emax cf. ACh, M3); 84% in assay [2] (read-out: % Emax cf. ACh, M1); 17% in assay [3] (read-out: % Emax cf. ACh, M4); 21% in assay [4] (read-out: % Emax cf. ACh, M2).
